Test results reported in patent US11759442B2, “Use of short chain fatty acids for the treatment and prevention of diseases and disorders” (Temple University-Of The Commonwealth System of Higher …, priority 2017, dated 2023).

Key:
IL-6 = details: cited from earlier work
GPR-109a receptor = GPR-109a receptor (Homo sapiens, UniProt Q8TDS4); details: read-out: EC50 of GPR-109a receptor activation; cited from earlier work
[1] = tested on: ileum inflammatory cytokines; details: neonatal piglets, oral ~10 ml of 150 mmol/L; cited from earlier work

Chain of GPR-109a receptor (Q8TDS4 whole entry): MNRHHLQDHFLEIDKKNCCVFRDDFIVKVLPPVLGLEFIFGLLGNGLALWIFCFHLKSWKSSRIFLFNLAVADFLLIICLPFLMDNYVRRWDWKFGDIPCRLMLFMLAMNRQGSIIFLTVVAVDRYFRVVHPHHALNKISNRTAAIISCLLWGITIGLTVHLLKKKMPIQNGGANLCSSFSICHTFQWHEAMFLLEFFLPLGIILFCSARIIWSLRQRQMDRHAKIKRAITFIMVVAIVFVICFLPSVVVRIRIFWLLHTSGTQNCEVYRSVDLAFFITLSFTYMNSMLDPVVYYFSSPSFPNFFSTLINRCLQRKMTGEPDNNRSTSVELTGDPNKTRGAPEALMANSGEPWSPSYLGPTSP

CCC(=O)O [propionate]
effect on IL-6 (IL-6): inhibit IL-6

CCCC(=O)O [butyrate]
re-emergence of psoriasis on left elbow after ceasing the regimen (psoriasis skin lesions; FIG. 2 patient, one 600 mg pill 3 times daily for 16 days, then stopped): 20 days | time until psoriasis came back after stopping the regimen (psoriasis skin lesions; FIG. 5 fourth patient): 20 to 25 days | side effects during treatment (psoriasis skin lesions; FIG. 5 fourth patient, treatment for long period of time): no side effects were noted | EC50 (GPR-109a receptor): ~1.5 mM

CCCC(=O)[O-].[Na+] [sodium butyrate]
effect on ileum inflammatory cytokines [1]: modulated the ileum inflammatory cytokines
